In PMC9459812, “Evaluation of Activity of Sesquiterpene Lactones and Chicory Extracts as Acetylcholinesterase Inhibitors Assayed in Calorimetric and Docking Simulation Studies” (Nutrients, 2022):

What was measured:
[1] = biological target: T1, acetylcholinesterase (AChE) (Electrophorus electricus, UniProt O42275); experiment: biochemical; settings: ITC, n = 9, ± SD
[2] = biological target: T1, acetylcholinesterase (AChE); experiment: biochemical; settings: ITC, 36.6 °C, single binding site mode, n = 9, ± SD; read-out: KD (dissociation constant)

T1 sequence (O42275 24-633): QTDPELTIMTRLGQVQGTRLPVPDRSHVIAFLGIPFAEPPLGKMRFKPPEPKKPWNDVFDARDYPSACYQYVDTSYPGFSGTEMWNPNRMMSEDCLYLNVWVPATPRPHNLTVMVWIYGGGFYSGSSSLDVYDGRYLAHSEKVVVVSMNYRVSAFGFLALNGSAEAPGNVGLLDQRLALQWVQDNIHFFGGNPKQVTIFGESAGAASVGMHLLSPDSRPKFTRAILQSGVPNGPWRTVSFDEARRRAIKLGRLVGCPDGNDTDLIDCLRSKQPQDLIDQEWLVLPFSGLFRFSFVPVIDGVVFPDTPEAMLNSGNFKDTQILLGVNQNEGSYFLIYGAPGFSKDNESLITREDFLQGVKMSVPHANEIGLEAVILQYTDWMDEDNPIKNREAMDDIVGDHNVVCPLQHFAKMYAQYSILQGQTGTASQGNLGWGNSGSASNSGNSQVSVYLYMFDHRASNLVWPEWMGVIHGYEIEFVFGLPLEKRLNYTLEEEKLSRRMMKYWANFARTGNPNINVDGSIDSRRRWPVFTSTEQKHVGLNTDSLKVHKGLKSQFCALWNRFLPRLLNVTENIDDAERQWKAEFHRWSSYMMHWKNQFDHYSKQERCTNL

With `C=C1C(=O)O[C@@H]2[C@H]3C(CO)=CC(=O)C3=C(C)C[C@H](OC(=O)Cc3ccc(O)cc3)[C@@H]12` [Lactucopicrin, lactucopicrin] the Ki ([1]; dissociation constant of the enzyme–inhibitor complex, read-out: KI (inhibition constant)) was 1320 ± 110 nM, the IC50 ([1]; inhibitor concentration causing 50% decrease in enzyme activity (converted to lactucine for extracts)) was 1740 ± 110 nM and the Kd [2] was 169000 ± 120 nM.
